Experimental data reported in ChEMBL document CHEMBL5053527, “Design, synthesis, and pharmacological profiling of cannabinoid 1 receptor allosteric modulators: Preclinical efficacy of C2-group GAT211 congeners for reducing intraocular pressure” (Bioorg Med Chem, 2021).
≈ marks a conversion by molar mass, not a printed value. Calls of active or inactive are those of the source. The calls are words filed in the database; no cut-off is given here.

Legend:
Cannabinoid receptor 1 [1] = molecular target: T1, Cannabinoid receptor 1 (Homo sapiens, UniProt P21554); experiment: Positive allosteric modulation of human CB1 receptor expressed in CHO-K1 cells assessed as inhibition of forskolin-induced cAMP production incubated for 30 mins in presence of forskolin by HitHunter chemiluminescence based assay; format: functional, cell-based
Cannabinoid receptor 1 [2] = molecular target: T1, Cannabinoid receptor 1; experiment: Positive allosteric modulation of human CB1 receptor expressed in CHO-K1 cells assessed as inhibition of forskolin-induced cAMP production by measuring maximum efficacy incubated for 30 mins in presence of forskolin by HitHunter chemiluminescence based assay relative to control; format: functional, cell-based
Cannabinoid receptor 1 [3] = molecular target: T1, Cannabinoid receptor 1; experiment: Positive allosteric modulation of human CB1 receptor expressed in CHO-K1 cells assessed as beta-arrestin 2 recruitment incubated for 90 mins by PathHunter chemiluminescence based assay; format: cell-based
Cannabinoid receptor 1 [4] = molecular target: T1, Cannabinoid receptor 1; experiment: Positive allosteric modulation of human CB1 receptor expressed in CHO-K1 cells assessed as beta-arrestin 2 […] by measuring maximum efficacy incubated for 90 mins by PathHunter chemiluminescence based assay relative to control; format: cell-based
in vitro [5] = conditions: human, liver microsomes
in vitro [6] = conditions: human, liver microsomes; remark: listed apart in the source
in vitro [7] = conditions: rat, liver microsomes
in vitro [8] = conditions: rat, liver microsomes; remark: listed apart in the source
physchem = conditions: PBS buffer, pH 7.4
Cannabinoid receptor 1 [9] = molecular target: T1, Cannabinoid receptor 1; experiment: Potency index, ratio of GAT211 EC50 to test compound EC50 for positive allosteric modulation of human CB1 receptor expressed in CHO-K1 cells assessed as inhibition of forskolin-induced cAMP production incubated for 30 mins in presence of CP55940 by HitHunter chemiluminescence based assay; format: functional, cell-based
Cannabinoid receptor 1 [10] = molecular target: T1, Cannabinoid receptor 1; experiment: Displacement of [3H]CP55940 from human CB1 receptor expressed in CHO-K1 cell membranes incubated for 60 mins by liquid scintillation spectrometry analysis; set-up: species or system Cell membrane
Cannabinoid receptor 1 [11] = molecular target: T1, Cannabinoid receptor 1; experiment: Displacement of [3H]CP55940 from human CB1 receptor expressed in CHO-K1 cell membrane assessed as maximum efficacy incubated for 60 mins by liquid scintillation spectrometry analysis relative to control; format: cell membranes
Cannabinoid receptor 1 [12] = molecular target: T1, Cannabinoid receptor 1; experiment: Agonist activity at human CB1 receptor expressed in CHO cell membranes assessed as increase in [35S]GTPgammaS binding incubated for 30 mins by liquid scintillation spectrometry analysis; format: functional, CHO-K1, Cell membrane
Cannabinoid receptor 1 [13] = molecular target: T1, Cannabinoid receptor 1; experiment: Agonist activity at human CB1 receptor expressed in CHO cell membranes assessed as increase in [35S]GTPgammaS binding by measuring maximum efficacy incubated for 30 mins by liquid scintillation spectrometry analysis relative to control; format: functional; conditions: CHO-K1, Cell membrane, filed as agonist
Cannabinoid receptor 1 [14] = molecular target: T1, Cannabinoid receptor 1; experiment: Agonist activity at human CB1 receptor expressed in CHO cell membranes assessed as increase in [35S]GTPgammaS binding by measuring maximum efficacy incubated for 30 mins in presence of CP55940 by liquid scintillation spectrometry analysis relative to control; format: functional; conditions: CHO-K1, Cell membrane, filed as agonist
Cannabinoid receptor 1 [15] = molecular target: Cannabinoid receptor 1 (Mus musculus, UniProt P47746); experiment: Positive allosteric modulation of CB1 receptor in MF1 mouse vas deferens assessed as inhibition of AEA-induced electrically evoked vas deferens contraction incubated for 13 mins followed by electrical stimulation for 2 mins (Rvb= 460 nM); format: tissue-based
[16] = molecular target: Cannabinoid receptor 1 (Mus musculus) (UniProt P47746); experiment: Positive allosteric modulation of CB1 receptor in MF1 mouse vas deferens assessed as inhibition of AEA-induced electrically evoked vas deferens contraction by measuring maximum efficacy incubated for 13 mins followed by electrical stimulation for 2 mins (Rvb= […]+/- […]% ); format: tissue-based; conditions: filed as positive allosteric modulator
[17] = molecular target: Cannabinoid receptor 1 (Mus musculus) (UniProt P47746); experiment: Agonist activity at CB1 receptor in C57BL/6 mouse hippocampal neurons assessed as inhibition of excitatory postsynaptic current at 1 uM at -70 mV holding membrane potential by whole cell patch clamp assay; format: functional, tissue-based; conditions: Neuron, filed as agonist
[18] = molecular target: Cannabinoid receptor 1 (Mus musculus) (UniProt P47746); experiment: Positive allosteric modulation of CB1 receptor in C57BL/6 mouse hippocampal neurons assessed as decrease in inhibition of DSE recovery rate at 1 uM and holding potential at 0 mV for 10 secs followed by DSE stimulation; format: tissue-based; conditions: Neuron, filed as positive allosteric modulator, time 10.0 sec
Mus musculus = experiment: Antiglaucoma activity in normotensive C57BL/6 mouse model assessed as reduction in intraocular pressure at 5 mM administered topically measured after 1 hr; format: functional
[19] = filed as positive allosteric modulator

T1 sequence (P21554 whole entry): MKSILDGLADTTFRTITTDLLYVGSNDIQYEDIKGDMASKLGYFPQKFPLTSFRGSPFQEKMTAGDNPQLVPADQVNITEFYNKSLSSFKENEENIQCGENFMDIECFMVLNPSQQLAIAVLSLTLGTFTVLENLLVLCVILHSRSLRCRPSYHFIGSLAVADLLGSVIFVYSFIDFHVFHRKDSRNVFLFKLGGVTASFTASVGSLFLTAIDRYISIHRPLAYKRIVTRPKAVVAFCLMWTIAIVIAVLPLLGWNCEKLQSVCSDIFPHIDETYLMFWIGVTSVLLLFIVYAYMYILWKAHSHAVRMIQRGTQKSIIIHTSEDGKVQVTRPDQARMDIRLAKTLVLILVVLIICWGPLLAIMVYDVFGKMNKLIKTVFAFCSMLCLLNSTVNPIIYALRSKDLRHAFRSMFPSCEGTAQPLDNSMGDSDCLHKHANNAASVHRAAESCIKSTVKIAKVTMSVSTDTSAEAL
Chain of Cannabinoid receptor 1 (Mus musculus) (P47746 whole entry): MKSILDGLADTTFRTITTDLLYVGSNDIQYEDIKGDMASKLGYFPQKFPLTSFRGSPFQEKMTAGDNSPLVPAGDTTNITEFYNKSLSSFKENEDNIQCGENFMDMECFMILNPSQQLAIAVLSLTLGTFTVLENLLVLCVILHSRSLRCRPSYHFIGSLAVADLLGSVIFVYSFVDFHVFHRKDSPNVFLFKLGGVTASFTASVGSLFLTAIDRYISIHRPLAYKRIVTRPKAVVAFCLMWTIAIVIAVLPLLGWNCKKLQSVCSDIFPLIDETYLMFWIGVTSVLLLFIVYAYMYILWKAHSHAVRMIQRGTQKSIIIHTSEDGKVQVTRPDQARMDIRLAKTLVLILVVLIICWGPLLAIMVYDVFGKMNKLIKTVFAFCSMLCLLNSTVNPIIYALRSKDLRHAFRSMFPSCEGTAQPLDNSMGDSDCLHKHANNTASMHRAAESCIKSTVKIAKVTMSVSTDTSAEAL
Chain of Cannabinoid receptor 1 (Mus musculus, UniProt P47746) (P47746 whole entry): as above

SMILES	EC50 (Cannabinoid receptor 1 [1]) [µM]	Emax (Cannabinoid receptor 1 [2]; [19]) [%]	EC50 (Cannabinoid receptor 1 [3]) [µM]	Emax (Cannabinoid receptor 1 [4]) [%]	further results
O=[N+]([O-])CC(c1ccccc1)c1c(-c2cccs2)[nH]c2ccccc12 (stereo unspecified)	0.17	85	0.11		Emax (Cannabinoid receptor 1 [4]; [19]): 57%; microsomal CLint at 0.25 h, 1 µM (in vitro [5]): 115 µL/min/mg; half-life at 0.25 h, 1 µM (in vitro [6]): 20 min; microsomal CLint at 0.25 h, 1 µM (in vitro [7]): 595 µL/min/mg; half-life at 0.25 h, 1 µM (in vitro [8]): 3.88 min; solubility kinetic at 2 h, 200 µM (physchem): 1.56 µM (≈ 0.544 µg/mL)
O=[N+]([O-])CC(c1ccccc1)c1c(-c2ccc[nH]2)[nH]c2ccccc12 (stereo unspecified)	0.22	110	> 10	25	
CC(C)[Si](C(C)C)(C(C)C)n1ccc(-c2[nH]c3ccccc3c2C(C[N+](=O)[O-])c2ccccc2)c1 (stereo unspecified)	0.97	120	> 10	-4.5	
O=[N+]([O-])CC(c1ccccc1)c1c(-c2cscn2)[nH]c2ccccc12 (stereo unspecified)	1.2		> 10		Emax (Cannabinoid receptor 1 [2]): 38%; Emax (Cannabinoid receptor 1 [4]; [19]): 45%
O=[N+]([O-])CC(c1ccccc1)c1c(-c2ccsc2)[nH]c2ccccc12 (stereo unspecified)	0.087	98	0.32		Emax (Cannabinoid receptor 1 [4]; [19]): 46%; Ratio EC50 (Cannabinoid receptor 1 [9]): 3; Ki (Cannabinoid receptor 1 [10]): 0.043 µM; Emax (Cannabinoid receptor 1 [11]; [19]): 100%; EC50 (Cannabinoid receptor 1 [12]): 0.13 µM; Emax (Cannabinoid receptor 1 [13]): 49%; Emax (Cannabinoid receptor 1 [14]): 46%; EC50 (Cannabinoid receptor 1 [15]): 0.03 µM; Emax [16]: 62%; inhibition [17]: Active; Activity [18]: Active; Activity (Mus musculus): 3.2 mmHg; microsomal CLint at 0.25 h, 1 µM (in vitro [5]): 111 µL/min/mg; half-life at 0.25 h, 1 µM (in vitro [6]): 20.8 min; microsomal CLint at 0.25 h, 1 µM (in vitro [7]): 489 µL/min/mg; half-life at 0.25 h, 1 µM (in vitro [8]): 4.72 min; solubility kinetic at 2 h, 200 µM (physchem): 1.56 µM (≈ 0.544 µg/mL)
O=[N+]([O-])CC(c1ccccc1)c1c(-c2ccn[nH]2)[nH]c2ccccc12 (stereo in doubt; 15g) [listing 1 of 2 here]	> 10		> 10		
O=[N+]([O-])CC(c1ccccc1)c1c(-c2cc3ccccc3[nH]2)[nH]c2ccccc12 (stereo unspecified)	> 10	110	> 10	3.3	
O=[N+]([O-])CC(c1ccccc1)c1c(-c2cn[nH]c2)[nH]c2ccccc12 (stereo unspecified)	> 10	110	> 10	3.5	
O=[N+]([O-])CC(c1ccccc1)c1c(-c2ccn[nH]2)[nH]c2ccccc12 (stereo in doubt; 15h) [listing 1 of 2 here]		120		0.76	
O=[N+]([O-])CC(c1ccccc1)c1c(-c2ccn[nH]2)[nH]c2ccccc12 (stereo in doubt; 15g) [listing 2 of 2 here]				0	Emax (Cannabinoid receptor 1 [2]): 0%
O=[N+]([O-])CC(c1ccccc1)c1c(-c2ccoc2)[nH]c2ccccc12 (stereo unspecified)	0.1	120	> 1	18	
O=[N+]([O-])CC(c1ccccc1)c1c(-c2nccs2)[nH]c2ccccc12 (stereo unspecified)	0.79	72	> 10	2.8	
O=[N+]([O-])CC(c1ccccc1)c1c(-c2cc3ccccc3s2)[nH]c2ccccc12 (stereo unspecified)	0.15	130	> 10	13	
O=[N+]([O-])CC(c1ccccc1)c1c(-c2cc[nH]c2)[nH]c2ccccc12 (stereo unspecified)	> 10	52	> 10	-1.5	
O=[N+]([O-])CC(c1ccccc1)c1c(-c2c[nH]c3ccccc23)[nH]c2ccccc12 (stereo unspecified)	> 10		> 10	1.3	Emax (Cannabinoid receptor 1 [2]): -71%
O=[N+]([O-])CC(c1ccccc1)c1c(-c2ccccc2)[nH]c2ccccc12 (stereo unspecified)					Emax (Cannabinoid receptor 1 [11]; [19]): 57%
O=[N+]([O-])CC(c1ccccc1)c1c(-c2ccn[nH]2)[nH]c2ccccc12 (stereo in doubt; 15h) [listing 2 of 2 here]					EC50 (Cannabinoid receptor 1 [1]; cho-k1): > 10 µM; EC50 (Cannabinoid receptor 1 [3]; cho-k1): > 10 µM
O=[N+]([O-])CC(c1ccccc1)c1c(-c2cncs2)[nH]c2ccccc12 (stereo unspecified)	1.5	100	> 10	5.1	
CC(C)(C)OC(=O)n1c(-c2[nH]c3ccccc3c2C(C[N+](=O)[O-])c2ccccc2)cc2ccccc21 (stereo unspecified)	> 10		> 10	0	Emax (Cannabinoid receptor 1 [2]): 0%
O=[N+]([O-])CC(c1ccccc1)c1c(-c2cc3ccccc3o2)[nH]c2ccccc12 (stereo unspecified)	0.55	96	> 10	9.5	
CCCCCCC(C)(C)c1ccc([C@@H]2C[C@H](O)CC[C@H]2CCCO)c(O)c1					Emax (Cannabinoid receptor 1 [11]): -100%; Emax (Cannabinoid receptor 1 [13]): 42%
O=[N+]([O-])CC(c1ccccc1)c1c(-c2ccco2)[nH]c2ccccc12 (stereo unspecified)	0.13	140	2.1	11	
